Data reported in patent US20250163065A1, “PYRROLOTRIAZINONE COMPOUND, PHARMACEUTICAL COMPOSITION COMPRISING SAME, PREPARATION METHOD THEREFOR, AND USE THEREOF” (SHANGHAITECH UNIVERSITY, priority 2022, published 2025).
Where two headings read alike, the source gives them in different places.

Assays:
[1] = Pharmacokinetics and brain distribution in mice after single intraperitoneal injection; assay type: in vivo, male C57 mice; conditions: mouse, 10 mg/kg intraperitoneal; for half-life / Tmax / Cmax: C57, ip
GPR139 = GPR139 (Homo sapiens (Human), UniProt Q6DWJ6); assay: Agonistic activity on GPR139, calcium flux detection assay (FLIPR) in transfected CHO-K1 cells; assay type: cell-based; conditions: for EC50: calcium flux, CHO-K1 cells transfected with GPR139 plasmid, mean ± standard deviation; for Emax: CHO-K1
BALB/c mice = assay: Social interaction experiment in BALB/c mice (negative symptoms of schizophrenia); assay type: in vivo; conditions: for Social time: 10-minute period
Description: The experimental subjects were 6-week-old male BALB/c wild-type mice, weighing approximately 22 grams, purchased from Shanghai Lingchang Biotechnology Co., Ltd. They were housed in SPF-grade breeding facilities, with 2 mice per cage, under a 12-hour light/dark cycle, with free access to food and water. All behavioral experiments in this project were completed during the light cycle. The experiment adhered to all relevant regulations and guidelines for animal welfare and ethics, and was supervised and inspected by the ethics committee and laboratory animal managers.
The length, width, and height of the behavioral box used in this experiment were all 40 cm. During the experiment, 4 mice were tested in 4 behavioral boxes at the same time. In this experiment, Etho Vision XT was used for experimental setup and video recording.
The mice were 5 weeks old when purchased. After one week of observation, the experiment was started when they were 6 weeks old and weighed about 22 grams. Before each experiment, the experimental mice were restricted from eating 18 hours in advance. On the day of the experiment, the mice were transferred to the behavioral laboratory to familiarize themselves with the environment 1 hour in advance. Subsequently, they were administered by intraperitoneal injection, and each mouse was returned to its original cage after injection. After 20 minutes, the experimental mice were placed in the behavioral box to acclimate for 10 minutes. Then, a stimulus mouse (from the same batch of BALB/c) was placed in a corner of the behavioral box, away from the experimental mouse. The two mice were allowed to explore freely for 10 minutes while their activity was monitored and recorded by a camera, and the data was archived.
The experimental data were analyzed. The social interaction time (including approaching, sniffing, grooming, chasing, attacking, etc.) was calculated for each experimental mouse over a 10-minute period, and the total social time of each mouse across different groups was analyzed by one-way analysis of variance.

[2] = male, brain tissue, mean n=3, read-out: T1/2 Brain (converted)
[3] = male, brain tissue, mean n=3, read-out: tmax Brain
[4] = male, plasma, mean n=3, read-out: T1/2 Plasma (converted)
[5] = male, plasma, mean n=3, read-out: tmax Plasma

Sequence of GPR139 (Q6DWJ6 whole entry, species assumed): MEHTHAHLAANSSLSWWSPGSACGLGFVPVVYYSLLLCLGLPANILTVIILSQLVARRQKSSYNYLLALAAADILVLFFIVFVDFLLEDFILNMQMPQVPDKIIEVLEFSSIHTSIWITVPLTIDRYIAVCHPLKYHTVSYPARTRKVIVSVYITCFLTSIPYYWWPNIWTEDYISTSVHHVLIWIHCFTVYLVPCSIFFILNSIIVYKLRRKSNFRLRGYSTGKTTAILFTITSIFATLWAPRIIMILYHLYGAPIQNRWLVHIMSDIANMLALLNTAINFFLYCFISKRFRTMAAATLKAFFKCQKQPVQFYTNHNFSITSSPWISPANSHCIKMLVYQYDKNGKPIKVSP

Question: For C[C@H](NC(=O)Cn1ncc2cccn2c1=O)c1ccc(C(F)(F)F)cc1 [Compound I-32, (S)-2-(4-oxopyrrolo[1,2-d][1,2,4]triazin-3(4H)yl)-N-(1-(4-(trifluoromethyl)phenyl)ethyl)acetamide], which half-life [1, 2] is on record?
Answer: The half-life was 31.8 min.

Question: And the Tmax [1, 3]?
Answer: The Tmax was 30 min.

Question: What about the Cmax ([1]; male, plasma, mean n=3) of the same molecule?
Answer: The Cmax was 868 ng/g.

Question: What about the half-life [1, 4] of the same molecule?
Answer: Its half-life is 31.2 min.

Question: And the Tmax [1, 5]?
Answer: Its Tmax is 30 min.

Question: What about the “Cmax Brain” value ([1]; brain tissue, mean n=3) of the same molecule?
Answer: Its value is 1264 ng/g.

Question: For C[C@H](NC(=O)Cn1ncc2cccn2c1=O)c1ccccc1 [Compound I-4, (S)-2-(4-oxopyrrolo[1,2-d][1,2,4]triazin-3(4H)yl)-N-(1-phenylethyl)acetamide], which EC50 (GPR139) is on record?
Answer: Its EC50 is 111 ± 4 nM.

Question: Which “One-way analysis of variance (social time)” value (BALB/c mice; 0.3 mg/kg intraperitoneal) does the source give for C[C@H](NC(=O)Cn1ncc2cccn2c1=O)c1ccc(OC(F)(F)F)cc1 [Compound I-5, (S)-2-(4-oxopyrrolo[1,2-d][1,2,4]triazin-3(4H)yl)-N-(1-(4-(trifluoromethoxy)phenyl)ethyl)acetamide] here?
Answer: The value was “No difference”.

Question: And the “Social time” value (BALB/c mice; 0.3 mg/kg intraperitoneal)?
Answer: The value was 107 ± 15 s.

Question: And the “One-way analysis of variance (social time)” value (BALB/c mice; 1 mg/kg intraperitoneal)?
Answer: Its value is “No difference”.

Question: And the “Social time” value (BALB/c mice; 1 mg/kg intraperitoneal)?
Answer: The value was 103 ± 17 s.

Question: And the “Social time” value (BALB/c mice; 3 mg/kg intraperitoneal)?
Answer: Its value is 129 ± 12 s.

Question: What about the “Effect on social disorders in mice” value (BALB/c mice; dose of 3 mg/kg) of the same molecule?
Answer: The value was “significant improvement effect”.

Question: With Cc1ccc2cnn(CC(=O)N[C@@H](C)c3ccccc3)c(=O)n12 [Compound I-14, (S)-2-(6-methyl-4-oxopyrrolo[1,2-d][1,2,4]triazin-3(4H)yl)-N-(1-phenylethyl)acetamide] as the molecule, how does the EC50 (GPR139) read?
Answer: The EC50 was 13 ± 2 nM.

Question: For Cc1cc(C)n2c(=O)n(CC(=O)N[C@@H](C)c3ccc(Cl)cc3)ncc12 [Compound I-22, (S)—N-1-(4-chlorophenyl)ethyl-2-(6,8-dimethyl-4-oxopyrrolo[1,2-d][1,2,4]triazin-3(4H)yl)acetamide], which EC50 (GPR139) is on record?
Answer: Its EC50 is 56 ± 11 nM.

Question: Which half-life [1, 2] does the source give for C[C@H](NC(=O)Cn1ncc2cccn2c1=O)c1ccc(F)cc1 [Compound I-1] here?
Answer: The half-life was 19.2 min.

Question: What about the Tmax [1, 3] of the same molecule?
Answer: Its Tmax is 30 min.

Question: What about the Cmax ([1]; male, plasma, mean n=3) of the same molecule?
Answer: Its Cmax is 700 ng/g.

Question: What about the half-life [1, 4] of the same molecule?
Answer: Its half-life is 42 min.

Question: What about the Tmax [1, 5] of the same molecule?
Answer: Its Tmax is 30 min.

Question: What about the “Cmax Brain” value ([1]; brain tissue, mean n=3) of the same molecule?
Answer: Its value is 713 ng/g.

Question: Which Emax (GPR139) does the source give for Cc1ccc2cnn(CC(=O)N[C@H](c3ccc(F)cc3)C(C)C)c(=O)n12 [Compound I-39, (S)—N-(1-(4-fluorophenyl)-2-methylpropyl)-2-(6-methyl-4-oxopyrrolo[1,2-d][1,2,4]triazin-3(4H)yl)acetamide] here?
Answer: Its Emax is 94%.

Question: And the EC50 (GPR139)?
Answer: Its EC50 is 26 nM.

Question: For CC(C)[C@H](NC(=O)Cn1ncc2cccn2c1=O)c1ccc(F)cc1 [Compound I-37, (S)—N-(1-(4-fluorophenyl)-2-methylpropyl)-2-(4-oxopyrrolo[1,2-d][1,2,4]triazin-3(4H)yl)acetamide], which Emax (GPR139) is on record?
Answer: Its Emax is 92%.

Question: And the EC50 (GPR139)?
Answer: The EC50 was 120 nM.

Question: For Cc1ccc([C@H](C)NC(=O)Cn2ncc3c(C)cc(C)n3c2=O)cc1 [Compound I-18, (S)-2-(6,8-dimethyl-4-oxopyrrolo[1,2-d][1,2,4]triazin-3(4H)yl)-N-(1-(p-tolyl)ethyl)acetamide], which EC50 (GPR139) is on record?
Answer: Its EC50 is 93 ± 15 nM.

Question: What does the source list for C[C@H](NC(=O)Cn1nnc2ccccc2c1=O)c1ccc(OC(F)(F)F)cc1 [TAK-041, reference compound]?
Answer: Social time (BALB/c mice; 1 mg/kg intraperitoneal): 93 ± 26 s; Social time (BALB/c mice; 3 mg/kg intraperitoneal): 129 ± 28 s; Kp ([1]; male, C57, brain and plasma, ip): 0.892; Tmax [1, 3]: 30 min; Tmax [1, 5]: 360 min; Cmax Brain ([1]; brain tissue, mean n=3): 6754 ng/g; T1/2 Brain ([1]; brain tissue, mean n=3): 108 h; Cmax Plasma ([1]; plasma, mean n=3): 7057 ng/g
